Tests used:
FLT3 = target: T1, FLT3 (Homo sapiens, UniProt P36888); assay: Kinase screening, HotSpot assay (Reaction Biology); type: biochemical
T1 construct: purchased Reaction Biology Corporation
T1 sequence (P36888 27-993): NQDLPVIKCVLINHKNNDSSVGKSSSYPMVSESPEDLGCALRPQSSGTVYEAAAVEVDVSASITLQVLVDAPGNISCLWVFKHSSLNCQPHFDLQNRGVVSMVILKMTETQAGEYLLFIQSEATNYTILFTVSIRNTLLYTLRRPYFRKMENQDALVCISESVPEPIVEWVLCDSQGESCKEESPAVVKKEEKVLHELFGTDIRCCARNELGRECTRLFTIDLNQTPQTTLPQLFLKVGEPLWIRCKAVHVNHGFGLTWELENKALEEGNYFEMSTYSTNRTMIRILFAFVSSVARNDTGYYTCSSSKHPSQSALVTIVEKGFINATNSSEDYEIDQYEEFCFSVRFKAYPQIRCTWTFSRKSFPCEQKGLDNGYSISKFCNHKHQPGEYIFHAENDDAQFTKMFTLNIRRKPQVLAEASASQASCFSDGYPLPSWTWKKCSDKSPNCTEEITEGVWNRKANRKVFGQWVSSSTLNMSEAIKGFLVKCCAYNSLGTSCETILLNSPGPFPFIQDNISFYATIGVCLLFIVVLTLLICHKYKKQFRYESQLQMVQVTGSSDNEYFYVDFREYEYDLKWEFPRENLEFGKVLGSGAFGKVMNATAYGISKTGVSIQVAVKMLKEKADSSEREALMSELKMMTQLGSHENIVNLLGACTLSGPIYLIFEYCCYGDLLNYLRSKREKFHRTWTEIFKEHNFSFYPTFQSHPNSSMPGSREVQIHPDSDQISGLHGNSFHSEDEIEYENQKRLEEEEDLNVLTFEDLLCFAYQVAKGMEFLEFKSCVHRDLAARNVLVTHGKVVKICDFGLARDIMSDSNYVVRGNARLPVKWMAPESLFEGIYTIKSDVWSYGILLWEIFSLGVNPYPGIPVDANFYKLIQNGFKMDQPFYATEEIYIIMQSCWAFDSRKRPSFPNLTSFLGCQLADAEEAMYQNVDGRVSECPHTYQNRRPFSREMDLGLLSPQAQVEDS
Method: Kinase screening was performed using a “HotSpot” assay platform method by Reaction Biology Corporation. The reaction buffer used herein contained 20 mM HEPES (pH 7.5), 10 mM MgCl2, 1 mM EGTA, 0.02% Brij35, 0.02 mg/mL BSA, 0.1 mM Na3VO4, 2 mM DTT and 1% DMSO. The required cofactors were added in accordance with the kinase reaction. Freshly made buffer and cofactors were added at a concentration of 20 μM during the selected enzyme reaction. A solution of the test compound in dimethylsulfoxide (DMSO) was added at a suitable concentration to this solution.

Ba/F3 FLT3-ITD = Ba/F3 FLT3-ITD growth inhibition; type: cell-based; details: Ba/F3 FLT3-ITD cells
Ba/F3 parental = Ba/F3 parental growth inhibition; type: cell-based; details: Mus musculus, BaF3; Ba/F3 parental cells
hERG K+ channel = hERG K+ channel (Homo sapiens, UniProt Q12809); assay: hERG K+ channel binding assay (fluorescence polarization)
Chain of hERG K+ channel (Q12809 whole entry): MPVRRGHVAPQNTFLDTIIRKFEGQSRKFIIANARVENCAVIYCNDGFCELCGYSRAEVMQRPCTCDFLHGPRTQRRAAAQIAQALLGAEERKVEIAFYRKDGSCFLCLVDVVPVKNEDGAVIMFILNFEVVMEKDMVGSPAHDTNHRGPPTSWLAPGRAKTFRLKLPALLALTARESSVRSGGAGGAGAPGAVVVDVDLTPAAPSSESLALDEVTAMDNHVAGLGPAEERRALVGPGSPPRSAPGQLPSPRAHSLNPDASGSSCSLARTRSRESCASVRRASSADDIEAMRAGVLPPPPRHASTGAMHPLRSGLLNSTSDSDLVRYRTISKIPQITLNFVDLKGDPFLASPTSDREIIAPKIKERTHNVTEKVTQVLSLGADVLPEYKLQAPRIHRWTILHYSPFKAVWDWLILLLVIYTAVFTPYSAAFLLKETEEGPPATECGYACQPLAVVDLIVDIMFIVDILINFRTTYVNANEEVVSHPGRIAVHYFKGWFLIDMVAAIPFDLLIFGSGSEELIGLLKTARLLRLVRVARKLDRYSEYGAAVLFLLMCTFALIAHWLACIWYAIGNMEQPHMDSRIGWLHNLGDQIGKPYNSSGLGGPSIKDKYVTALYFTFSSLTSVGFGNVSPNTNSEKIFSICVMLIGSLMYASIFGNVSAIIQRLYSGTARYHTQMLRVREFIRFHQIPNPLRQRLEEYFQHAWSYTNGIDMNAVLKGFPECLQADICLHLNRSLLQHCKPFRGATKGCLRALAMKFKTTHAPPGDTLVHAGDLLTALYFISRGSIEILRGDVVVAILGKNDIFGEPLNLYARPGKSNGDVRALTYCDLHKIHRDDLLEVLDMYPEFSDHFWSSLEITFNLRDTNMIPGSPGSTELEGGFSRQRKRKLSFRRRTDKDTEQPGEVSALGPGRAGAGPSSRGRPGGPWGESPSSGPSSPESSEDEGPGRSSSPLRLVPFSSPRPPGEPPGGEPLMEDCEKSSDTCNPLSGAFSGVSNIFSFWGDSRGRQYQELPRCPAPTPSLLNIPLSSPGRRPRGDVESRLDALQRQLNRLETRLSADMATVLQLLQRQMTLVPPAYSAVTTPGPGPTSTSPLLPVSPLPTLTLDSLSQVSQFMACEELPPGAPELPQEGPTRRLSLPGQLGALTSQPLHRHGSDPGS
Method: The hERG tracer and membranes were dissolved at room temperature before use, the tracer and hERG assay buffer were diluted at 1:62.5 and a test substance was diluted to 40 μM with assay buffer. 5 μL of the test substance, a positive control (astemizole or E-4031) and a negative control (DMSO) were dispensed into a 384-well plate, the membranes are dispensed at 10 μL using a multi-pipette and 5 μl of the tracer was dispensed. The light was blocked and incubated at 25° C. for 2 to 3 hours. Then, polarization was measured using a TECAN plate reader (Infinite M1000 pro).

CYP 1A2 = CYP 1A2 (Homo sapiens, UniProt P05177); assay: CYP450 assay (luminescence); type: in vitro ADME; details: human, CYP 1A2 enzyme with substrate; compound at 10 μM; read-out: inhibitory activity against human CYP 1A2
Chain of CYP 1A2 (P05177 whole entry): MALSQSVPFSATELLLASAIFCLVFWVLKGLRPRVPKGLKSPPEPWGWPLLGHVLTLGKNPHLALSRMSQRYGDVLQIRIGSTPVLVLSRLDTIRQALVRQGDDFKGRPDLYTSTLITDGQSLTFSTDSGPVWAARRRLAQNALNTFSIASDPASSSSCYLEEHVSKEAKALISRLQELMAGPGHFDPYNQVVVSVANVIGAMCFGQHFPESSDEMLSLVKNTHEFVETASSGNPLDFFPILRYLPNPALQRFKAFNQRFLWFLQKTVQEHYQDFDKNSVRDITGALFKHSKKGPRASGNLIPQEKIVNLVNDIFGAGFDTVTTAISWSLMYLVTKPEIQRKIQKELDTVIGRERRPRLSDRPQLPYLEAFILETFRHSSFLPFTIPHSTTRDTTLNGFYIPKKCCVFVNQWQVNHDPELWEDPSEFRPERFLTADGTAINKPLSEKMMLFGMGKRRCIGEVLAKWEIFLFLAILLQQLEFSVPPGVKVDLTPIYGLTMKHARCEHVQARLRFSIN
Method: (§1) Compound 5 and a positive control stock solution were diluted with water to prepare a 40 μM working solution, and a solution containing an enzyme and a substrate was prepared using water and buffer. Compound 5/control/positive control and the solution were each dispensed on a 96-well and preincubated at 37° C. for 10 minutes. The resulting substance was reacted with NADPH for 20 minutes at 37° C. and a detection reagent was added to terminate the reaction. After stabilization at room temperature for 20 minutes, a luminescence signal was measured.

CYP 3A4 = CYP 3A4 (Homo sapiens, UniProt P08684); assay: CYP450 assay (luminescence); type: in vitro ADME; details: CYP 3A4 enzyme with substrate, compound at 10 μM, read-out: inhibitory activity against human CYP 3A4
Chain of CYP 3A4 (P08684 whole entry): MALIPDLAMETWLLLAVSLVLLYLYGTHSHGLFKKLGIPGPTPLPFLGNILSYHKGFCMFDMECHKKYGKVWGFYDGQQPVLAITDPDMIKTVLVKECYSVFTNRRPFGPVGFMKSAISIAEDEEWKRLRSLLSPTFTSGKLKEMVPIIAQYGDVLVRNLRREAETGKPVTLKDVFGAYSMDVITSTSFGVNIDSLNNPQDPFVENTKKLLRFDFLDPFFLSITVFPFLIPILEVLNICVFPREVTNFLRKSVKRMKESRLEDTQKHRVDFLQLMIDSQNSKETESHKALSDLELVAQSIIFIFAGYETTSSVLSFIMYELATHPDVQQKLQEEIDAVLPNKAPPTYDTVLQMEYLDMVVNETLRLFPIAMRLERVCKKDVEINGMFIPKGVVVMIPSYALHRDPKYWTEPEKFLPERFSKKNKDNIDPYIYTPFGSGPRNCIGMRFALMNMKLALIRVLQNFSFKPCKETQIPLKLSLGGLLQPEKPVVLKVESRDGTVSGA
Method: as §1

CYP 2C19 = CYP 2C19 (Homo sapiens, UniProt P33261); assay: CYP450 assay (luminescence); type: in vitro ADME; details: CYP 2C19 enzyme with substrate, compound at 10 μM, read-out: inhibitory activity against human CYP 2C19
Chain of CYP 2C19 (P33261 whole entry): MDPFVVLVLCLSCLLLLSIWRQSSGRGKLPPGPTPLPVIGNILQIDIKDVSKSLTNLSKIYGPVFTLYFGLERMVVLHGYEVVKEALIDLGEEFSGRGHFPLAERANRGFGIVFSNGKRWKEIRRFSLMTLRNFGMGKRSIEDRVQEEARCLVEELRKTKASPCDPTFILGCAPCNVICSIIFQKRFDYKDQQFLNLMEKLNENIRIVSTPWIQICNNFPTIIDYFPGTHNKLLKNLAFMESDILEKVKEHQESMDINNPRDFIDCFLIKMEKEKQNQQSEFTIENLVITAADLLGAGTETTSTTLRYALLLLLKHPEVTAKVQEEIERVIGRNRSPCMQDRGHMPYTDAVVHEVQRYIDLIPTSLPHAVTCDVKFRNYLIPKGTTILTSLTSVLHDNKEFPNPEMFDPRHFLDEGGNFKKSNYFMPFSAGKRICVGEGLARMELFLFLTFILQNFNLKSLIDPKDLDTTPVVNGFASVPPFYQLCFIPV
Method: (§2) The resulting substance was reacted with NADPH for 20 minutes at 37° C. and a detection reagent was added to terminate the reaction. After stabilization at room temperature for 20 minutes, a luminescence signal was measured.

CYP 2C9 = CYP 2C9 (Homo sapiens, UniProt P11712); assay: CYP450 assay (luminescence); type: in vitro ADME; details: CYP 2C9 enzyme with substrate, compound at 10 μM, read-out: inhibitory activity against human CYP 2C9
Chain of CYP 2C9 (P11712 whole entry): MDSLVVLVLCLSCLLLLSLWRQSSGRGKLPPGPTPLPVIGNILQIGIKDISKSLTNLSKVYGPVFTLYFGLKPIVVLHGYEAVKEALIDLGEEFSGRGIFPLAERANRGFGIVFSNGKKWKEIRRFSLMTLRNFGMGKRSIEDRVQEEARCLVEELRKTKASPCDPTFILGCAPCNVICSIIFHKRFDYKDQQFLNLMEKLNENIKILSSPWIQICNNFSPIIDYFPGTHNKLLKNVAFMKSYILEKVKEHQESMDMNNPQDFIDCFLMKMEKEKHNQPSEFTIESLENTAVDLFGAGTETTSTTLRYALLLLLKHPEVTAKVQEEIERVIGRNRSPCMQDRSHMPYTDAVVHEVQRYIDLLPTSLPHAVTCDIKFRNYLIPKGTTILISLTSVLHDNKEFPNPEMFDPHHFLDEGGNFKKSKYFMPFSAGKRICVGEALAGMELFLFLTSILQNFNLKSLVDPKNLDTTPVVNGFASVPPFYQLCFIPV
Method: as §2

CYP 2D6 = CYP 2D6 (Homo sapiens, UniProt P10635); assay: CYP450 assay (luminescence); type: in vitro ADME; details: CYP 2D6 enzyme with substrate, compound at 10 μM, read-out: inhibitory activity against human CYP 2D6
Chain of CYP 2D6 (P10635 whole entry): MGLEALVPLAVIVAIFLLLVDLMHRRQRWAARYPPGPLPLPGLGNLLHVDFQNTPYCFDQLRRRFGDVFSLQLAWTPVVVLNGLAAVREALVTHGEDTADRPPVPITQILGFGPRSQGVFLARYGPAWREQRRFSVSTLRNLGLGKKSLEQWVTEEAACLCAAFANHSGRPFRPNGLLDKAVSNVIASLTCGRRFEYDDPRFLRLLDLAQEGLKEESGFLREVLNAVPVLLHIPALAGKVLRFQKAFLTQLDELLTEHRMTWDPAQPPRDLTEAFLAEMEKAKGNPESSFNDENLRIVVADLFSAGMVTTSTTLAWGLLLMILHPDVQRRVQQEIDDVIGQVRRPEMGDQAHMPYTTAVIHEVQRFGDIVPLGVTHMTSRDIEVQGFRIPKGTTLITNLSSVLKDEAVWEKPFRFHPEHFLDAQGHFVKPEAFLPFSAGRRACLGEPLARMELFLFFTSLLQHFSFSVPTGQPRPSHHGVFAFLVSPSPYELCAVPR
Method: as §2

[1] = Cytotoxicity test (cell counting kit-8), summary over respective cells; type: cell-based; details: African green monkey, human, mouse, Chinese hamster, NIH3T3 and CHO-K1 cells; criterion 10 μM; VERO, HFL-1, L929, NIH3T3, CHO-K1
Excerpt: Cell counting kit-8 assay is a general test method for identifying cell viability using a pale yellow tetrazolium salt called “WST-8”. WST-8, which is soluble in water, is degraded by a dehydrogenase present in the cells, forming orange formazan. Formazan dye is formed by dehydrogenase activity proportional to the number of viable cells, and thus can be used as an indicator for cell viability. The Hill equation of Graphpad Prism was used for analysis.

For Clc1cnc(Nc2ccc(OCCN3CCCC3)cc2)nc1NCc1ccco1 [Compound 5, 5-chloro-4-(furan-2-yl)methylamino-2-[4-{2-(pyrrolidin-1-yl)ethoxy}phenylamino]pyrimidine], the IC50 (FLT3) was 2.87 nM, the GI50 (Ba/F3 FLT3-ITD) was 42 nM and the GI50 (Ba/F3 parental) was 1820 nM. The “hERG K+ channel binding as indicator of toxicity in the heart, conclusion” value (hERG K+ channel) was “stable in the heart”, the IC50 (hERG K+ channel; concentrations 0.01, 0.1, 1, 2, 5, 10, 20, 50 μM) was 15200 nM and the inhibition at 20 min, 10 µM (CYP 1A2) was 1.93%. It also gave an inhibition at 20 min, 10 µM (CYP 3A4) of 22.1%, an inhibition at 20 min, 10 µM (CYP 2C19) of 15.9% and an inhibition at 20 min, 10 µM (CYP 2C9) of under 1%. The inhibition at 20 min, 10 µM (CYP 2D6) was 14.4% and the IC50 [1] was at least 10000 nM.
